The values below are quoted from earlier work in patent US20060193845A1, “Combination therapy for controlled carbohydrate digestion” (ELIXIR PHARMACEUTICALS, INC., priority 2004, published 2006).

With `OCCN1C[C@H](O)[C@@H](O)[C@H](O)[C@H]1CO` [Miglitol, 3,4,5-piperidinetriol, 1-(2-hydroxyethyl)-2-(hydroxymethyl)-, [2R-(2α,3β,4α,5β)]], the solubility in water result is “soluble”.
